Results on one compound are retold here after PMC7614687, “Modulation of the substrate specificity of the kinase PDK1 by distinct conformations of the full-length protein*” (Science signaling, 2023).

The assay deals with T1, GST-PDK1_360-556 (Homo sapiens, UniProt O15530).
T1 construct: GST-PDK1_360-556 (GST-PDK1-Linker-PH) was cloned into the BamHI-KpnI sites in pEBG2T plasmid; made in house; host or cells: HEK293 cells (transient transfection of pEBG2T)
T1 sequence (O15530 360-556): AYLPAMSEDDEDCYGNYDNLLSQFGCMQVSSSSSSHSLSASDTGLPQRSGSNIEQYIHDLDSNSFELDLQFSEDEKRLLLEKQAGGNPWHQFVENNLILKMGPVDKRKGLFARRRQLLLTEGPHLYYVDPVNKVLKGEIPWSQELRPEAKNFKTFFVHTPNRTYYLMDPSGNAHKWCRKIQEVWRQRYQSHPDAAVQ
Kind of assay: AlphaScreen biotin-PIP3 / GST-PDK1_360-556 (linker-PH domain) displacement. In kind it is binding. To be noted: relative to 5 nM on GST-PDK1_1-556. The procedure: The AlphaScreen® assay was performed following the general guidelines from the manufacturer (Perkin Elmer) ([29]). In short, the assay was performed in a final volume of 25 μl in white 384-well microtiter plates (Greiner) in a standard buffer containing 50 mM Tris-HCl (pH 7.4), 100 mM NaCl, 2 mM DTT, 0.01% (v/v) Tween-20 and 0.1% (w/v) BSA, with the addition of 5 μl of beads (anti-GST coated acceptor beads and streptavidin-coated donor beads; nickel chelate-coated acceptor beads and streptavidin-coated donor beads; or nickel chelate-coated acceptor beads and GSH-coated donor beads, 20 μg/ml final concentrations for each bead type). […]
The conditions for each AlphaScreen assay were identified in cross-titration experiments for each interaction to choose the ideal pair of concentrations within the linear range of the interactions. […] His-PDK1 and GST-fusion protein in the presence or absence of the different compounds were incubated in the dark for 60 min at room temperature and the emission of light from the acceptor beads was measured in an EnVision reader (Perkin Elmer) or Spark plate reader (Tecan). […]
Biotin-PIP3 interactions with GST-PDK1_1-556 or GST-PDK1_360-556 were assessed in the standard buffer. […]
(In general: In Alpha technology, singlet oxygen from a donor bead excites a nearby acceptor bead.)

With `CCCCO[C@H]1[C@@H](OP(=O)(O)O)[C@H](OP(=O)(O)O)[C@@H](OP(=O)(O)O)[C@H](OP(=O)(O)O)[C@H]1OP(=O)(O)O` [HYG14, 2-O-butyl-IP5], the “fold higher concentration needed for similar displacement of PIP3 from GST-linker-PH domain than from GST-PDK1_1-556” value is “more than 1000 fold”.
